Laboratory results reported in BindingDB's records for doi:10.7270/Q2TQ5ZZB (Burnham Center For Chemical Genomics, 2010).
pIC50: −log10 of the molar value. Counter-ions that a name gives are not always drawn.

Target: G-protein coupled receptor 35 (Homo sapiens, UniProt Q9HC97)
Experiment: inhibition of zaprinast-stimulated GPR35 beta-arrestin translocation – imaging, U2OS, beta-arrestin-GFP, zaprinast agonist, primary screen (AID 2058)

Chain of G-protein coupled receptor 35 (Q9HC97 whole entry): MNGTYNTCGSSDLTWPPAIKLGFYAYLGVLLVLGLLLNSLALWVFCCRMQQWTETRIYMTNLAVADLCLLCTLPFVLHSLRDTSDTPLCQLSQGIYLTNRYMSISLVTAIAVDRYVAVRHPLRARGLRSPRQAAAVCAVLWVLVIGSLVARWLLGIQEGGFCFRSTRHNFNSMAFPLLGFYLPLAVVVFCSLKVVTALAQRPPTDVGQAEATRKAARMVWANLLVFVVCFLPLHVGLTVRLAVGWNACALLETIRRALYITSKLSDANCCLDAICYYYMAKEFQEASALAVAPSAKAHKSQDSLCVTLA

Structure (SMILES)	pIC50
COc1cccc(C2C3CN(C)CCC3=C(C#N)C(=N)C2(C#N)C#N)c1OC (stereo not given) [6-Amino-8-(2,3-dimethoxy-phenyl)-2-methyl-2,3,8,8a-tetrahydro-1H-isoquinoline-5,7,7-tricarbonitrile]	5.56
CN1CCC2=C(C#N)C(=N)C(C#N)(C#N)C(c3ccsc3)C2C1 (stereo not given) [6-azanyl-2-methyl-8-thiophen-3-yl-1,3,8,8a-tetrahydroisoquinoline-5,7,7-tricarbonitrile]	6.00
CN1CCC2=C(C#N)C(=N)C(C#N)(C#N)C(c3cccc(Cl)c3Cl)C2C1 (stereo not given) [6-azanyl-8-[2,3-bis(chloranyl)phenyl]-2-methyl-1,3,8,8a-tetrahydroisoquinoline-5,7,7-tricarbonitrile]	4.92
CC1(C)Cc2c(ccc3ccccc23)C(CC(=O)N2CCCCC2)=N1 [(2Z)-2-(2,2-dimethyl-1,3-dihydrobenzo[f]isoquinolin-4-ylidene)-1-(1-piperidinyl)ethanone;hydrochloride]	4.96
Oc1ccc(CN=Nc2nc(-c3ccccc3F)nc3ccccc23)c(O)c1 [MLS000778210]	5.51
